Data set [1] has as its system female mice. As to the kind of experiment: Study of acute toxicity, intravenous injection.
Method: Groups of 4 female mice were treated by intravenous injection of solutions of heliomicine (SEQ ID NO:2) in saline solution at doses of 1 and 10 mg/kg.
Data set [2] has as its system Fusarium culmorum. The conditions noted are these: range [a]-[b], 48 h, 30° C.
Method: (§5) The antifungal activity was detected by a test for inhibition of growth in a liquid medium. The spores of the fungi to be tested were suspended in a culture medium of the “potato-glucose” type. Preferably, 12 g of Potato Dextrose Broth medium (Difco) were used per 1 l of demineralized water. Two antibiotics were added to the culture medium: tetracycline (final concentration of 10 μg/ml) and cefotaxime (100 μg/ml). 10 μl of each fraction to be analysed are deposited in microtitre plates in the presence of 90 μl of culture medium containing the spores (at a final concentration of 104 spores/ml). The incubation was carried out in a humid chamber at 30° C. for 48 hours. Fungal growth was observed under a light microscope after 24 h and quantified after 48 hours by measuring the absorbance at 600 nm with the aid of a spectrophotometric microtitre plate reader.
(§6) The different mutated heliomicines were analyzed for their antifungal activity under the conditions described for the reference heliomicine against the following strains: Neurospora crassa, Fusarium culmorum and Nectria haematococca.
The test system of data set [3] is Neurospora crassa. The conditions noted are these: range [a]-[b], start of growth to no growth, 48 h, 30° C.
Method: as §5, §6
The test system of data set [4] is Aspergillus fumigatus. As to the kind of experiment: Inhibition of growth in liquid medium, filamentous fungi (MIC). The format is cell-based. The conditions noted are these: range [a]-[b], 48 h, 30° C. An excerpt:
(§1) This methodology was used to test for the antifungal molecules during the various purification steps, for the determination of the activity spectrum of the peptide and for the determination of the minimum inhibitory concentration (MIC) at which the peptide was active. The MIC was expressed as the concentration range [a]-[b] where [a] was the minimum concentration where the start of growth is observed and [b] the concentration for which no growth was observed.
(§2) The antifungal activity was detected by a test for inhibition of growth in a liquid medium. The spores of the fungi to be tested were suspended in a culture medium of the “potato-glucose” type. Preferably, 12 g of Potato Dextrose Broth medium (Difco) were used per 1 l of demineralized water. Two antibiotics were added to the culture medium: tetracycline (final concentration of 10 μg/ml) and cefotaxime (100 μg/ml). 10 μl of each fraction to be analysed are deposited in microtitre plates in the presence of 90 μl of culture medium containing the spores (at a final concentration of […]). The incubation was carried out in a humid chamber at 30° C. for 48 hours. Fungal growth was observed under a light microscope after 24 h and quantified after 48 hours by measuring the absorbance at 600 nm with the aid of a spectrophotometric microtitre plate reader. […]

Data set [5] has as its system Trichoderma viride. The description is as above. The format is cell-based. The conditions noted are these: range [a]-[b], 48 h, 30° C.
Source text: as §1, §2

Data set [6] deals with Nectria haematococca. Conditions: range [a]-[b], 48 h, 30° C.
Method: as §5, §6
Data set [7] deals with Candida krusei. The data set is described as follows: Test for detection of activity against yeasts (MIC). In kind it is cell-based. Conditions: range [a]-[b].
Source text: as §1
(§3) The various yeast strains were incubated in a “Sabouraud” type culture medium and incubated at 30° C. for 24 h with gentle stirring. The test sample (10 μl) was deposited in microtitre plate wells to which there were added 90 μl of a dilute yeast culture whose density was adjusted to OD 600=0.001. Growth was evaluated by measuring the absorbance at 600 nm with the aid of a spectrophotometric microtitre plate reader.
(§4) - yeasts tested: Candida albicans, C. glabrata, C. tropicalis, C. krusei, C. inconspicua, Cryptococcus neoformans, Cryp. albidus, Saccharomyces cerevisiae (gift from Dr. H. Koenig, Hôpital civil, Strasbourg).

For data set [8], the system named is Candida albicans. The description is as above. In kind it is cell-based. Conditions: range [a]-[b].
Source text: as §1, §3, §4

The subject of data set [9] is Cryptococcus neoformans. The data set is described as above. The format is cell-based. The conditions noted are these: range [a]-[b].
Source text: as §1, §3, §4

For data set [10], the system named is Candida tropicalis. The description is as above. In kind it is cell-based. Conditions: range [a]-[b].
Source text: as §1, §3, §4

Data set [11] deals with Cryptococcus albidus. Described as above. The conditions noted are these: range [a]-[b]. In kind it is cell-based.
Source text: as §1, §3, §4

The test system of data set [12] is Candida inconspicua. The description is as above. The conditions noted are these: range [a]-[b]. The format is cell-based.
Source text: as §1, §3, §4

Bridge positions count the residues as written; N and C are the ends. Ends that are not written are not given here.

For `CC[C@H](C)[C@H](NC(=O)CN)C(=O)NCC(=O)N[C@@H](C)C(=O)N[C@H](C(=O)N[C@@H](CC(C)C)C(=O)N[C@@H](CCCCN)C(=O)N[C@H](C(=O)N[C@@H](CC(C)C)C(=O)N[C@H](C(=O)N[C@H](C(=O)NCC(=O)N[C@@H](CC(C)C)C(=O)N1CCC[C@H]1C(=O)N[C@@H](C)C(=O)N[C@@H](CC(C)C)C(=O)N[C@H](C(=O)N[C@@H](CO)C(=O)N[C@@H](Cc1c[nH]c2ccccc12)C(=O)N[C@H](C(=O)N[C@@H](CCCCN)C(=O)N[C@@H](CCCNC(=N)N)C(=O)N[C@@H](CCCCN)C(=O)N[C@@H](CCCNC(=N)N)C(=O)N[C@@H](CCC(N)=O)C(=O)N[C@@H](CCC(N)=O)C(N)=O)[C@@H](C)CC)[C@@H](C)CC)[C@@H](C)O)[C@@H](C)O)C(C)C)C(C)C` [mellitin], the Toxic effects result in data set [1] (intravenous injection, at 5 days at 1 mg) is on record as “significant effects”. The same compound came in with a Mortality in data set [1] (intravenous injection, at 5 days at 10 mg) of 100%.

For “DKLIGSCVWGAVNYTSDCNGECKRRGYKGGHCGSFANVNCWCET (disulfide 7-32, 18-40, 22-42) [heliomicine]”, the Acute toxicity result in data set [1] (intravenous injection in saline solution, doses of 1 and 10 mg/kg) is recorded as “No toxicity was demonstrated”. The MIC of heliomicine in [2] was in the range of 0.2 to 0.4 µM; in data set [3], 0.1 to 0.2 µM; in [4], 6 to 12.5 µM; in [5] it was 1.5 to 3 µM; in [6], 0.4 to 0.8 µM; in [7] it was 10 to 20 µM. For the same compound, the MIC of heliomicine lay within 2.5 to 5 µM in data set [8]; 2.5 to 5 µM in data set [9]; 2.5 to 5 µM in data set [10]; 5 to 10 µM in data set [11]; 5 to 10 µM in data set [12].

For the origin of these results see patent publication US6916782B1, “Gene coding for heliomicine and use thereof” (priority 1998, dated 2005).
